± gives the expanded uncertainty stated by the source.
Key:
[1] = Crystal; visual observation
[2] = mn = molality of the nth substance listed, in mol/kg; conditions: 101 kPa, Liquid; for apparent molar heat capacity: Flow calorimetry

CC(=O)N[C@@H](CCCCN)C(N)=O.Cl [(S)-2-acetamido-6-aminohexanamide hydrochloride]
Conditions | Normal melting temperature [°C]
[1] | 144.4 ± 1.1

CC(=O)N[C@@H](CCCCN)C(N)=O.Cl [(S)-2-acetamido-6-aminohexanamide hydrochloride] + O
[2]
Conditions | apparent molar heat capacity [J/K/mol] | mass density [kg/m3]
288.15 K, m1 = 0.02301 | 333.4 ± 35 | 1000.28 ± 0.26
288.15 K, m1 = 0.02858 | 336.3 ± 28 | 1000.57 ± 0.26
288.15 K, m1 = 0.0372 | 339.9 ± 22 | 1001.01 ± 0.26
288.15 K, m1 = 0.04378 | 339.8 ± 19 | 1001.34 ± 0.26
288.15 K, m1 = 0.05396 | 339.8 ± 16 | 1001.86 ± 0.26
288.15 K, m1 = 0.06411 | 343.1 ± 13 | 1002.37 ± 0.27
288.15 K, m1 = 0.07273 | 342 ± 12 | 1002.8 ± 0.27
288.15 K, m1 = 0.08089 | 341.3 ± 11 | 1003.21 ± 0.27
288.15 K, m1 = 0.08886 | 340.4 ± 10 | 1003.6 ± 0.27
288.15 K, m1 = 0.0972 | 343.1 ± 9.4 | 1004.02 ± 0.27
298.15 K, m1 = 0.02795 | 377.8 ± 28 | 998.439 ± 0.26
298.15 K, m1 = 0.03712 | 377.9 ± 22 | 998.893 ± 0.26
298.15 K, m1 = 0.04507 | 379.4 ± 18 | 999.283 ± 0.26
298.15 K, m1 = 0.05411 | 379.1 ± 16 | 999.729 ± 0.26
298.15 K, m1 = 0.06514 | 378.6 ± 13 | 1000.27 ± 0.26
298.15 K, m1 = 0.07363 | 379 ± 11 | 1000.68 ± 0.26
298.15 K, m1 = 0.08347 | 378.8 ± 10 | 1001.16 ± 0.26
298.15 K, m1 = 0.08995 | 379 ± 9.3 | 1001.47 ± 0.27
313.15 K, m1 = 0.02397 | 404.5 ± 36 | 993.394 ± 0.28
313.15 K, m1 = 0.03035 | 411.1 ± 29 | 993.703 ± 0.28
313.15 K, m1 = 0.03705 | 406.4 ± 24 | 994.027 ± 0.28
313.15 K, m1 = 0.04583 | 409.4 ± 19 | 994.449 ± 0.28
313.15 K, m1 = 0.05213 | – | 994.754 ± 0.28
313.15 K, m1 = 0.05469 | 404 ± 17 | –
313.15 K, m1 = 0.05752 | – | 995.015 ± 0.27
313.15 K, m1 = 0.06361 | 405.8 ± 15 | 995.306 ± 0.27
313.15 K, m1 = 0.06804 | 408 ± 14 | 995.516 ± 0.27
313.15 K, m1 = 0.07802 | 406.1 ± 12 | 995.99 ± 0.27
328.15 K, m1 = 0.02685 | 429 ± 35 | 986.984 ± 0.3
328.15 K, m1 = 0.03581 | 428 ± 27 | 987.412 ± 0.3
328.15 K, m1 = 0.04352 | 428.9 ± 22 | 987.778 ± 0.3
328.15 K, m1 = 0.05273 | 429.2 ± 18 | 988.207 ± 0.29
328.15 K, m1 = 0.06308 | 431.9 ± 16 | 988.699 ± 0.29
328.15 K, m1 = 0.07041 | 431.9 ± 14 | 989.042 ± 0.29
328.15 K, m1 = 0.08088 | 432.4 ± 12 | 989.527 ± 0.29
328.15 K, m1 = 0.0877 | 433.2 ± 12 | 989.846 ± 0.29

CC(=O)N[C@@H](CCC(N)=O)C(N)=O [(S)-2-acetamidopentanediamide]
Conditions | Normal melting temperature [°C]
[1] | 192.4 ± 1.1

CC(=O)N[C@@H](CCC(N)=O)C(N)=O [(S)-2-acetamidopentanediamide] + O
[2]
Conditions | apparent molar heat capacity [J/K/mol] | mass density [kg/m3]
288.15 K, m1 = 0.03981 | 353.8 ± 20 | 1000.96 ± 0.26
288.15 K, m1 = 0.04349 | 350.3 ± 18 | 1001.13 ± 0.26
288.15 K, m1 = 0.0507 | 353.7 ± 16 | 1001.46 ± 0.26
288.15 K, m1 = 0.05943 | 355.1 ± 14 | 1001.86 ± 0.26
288.15 K, m1 = 0.06967 | 356.4 ± 12 | 1002.33 ± 0.27
288.15 K, m1 = 0.07857 | 350.8 ± 11 | 1002.75 ± 0.27
288.15 K, m1 = 0.08453 | 356.6 ± 12 | 1003.03 ± 0.27
288.15 K, m1 = 0.09265 | 354.1 ± 9.5 | 1003.38 ± 0.27
288.15 K, m1 = 0.1008 | 353.9 ± 8.3 | 1003.78 ± 0.27
298.15 K, m1 = 0.04537 | 377.9 ± 18 | 999.104 ± 0.26
298.15 K, m1 = 0.05783 | 383.7 ± 16 | 999.659 ± 0.26
298.15 K, m1 = 0.06765 | 378 ± 13 | 1000.1 ± 0.26
298.15 K, m1 = 0.08263 | 379.9 ± 11 | 1000.77 ± 0.26
298.15 K, m1 = 0.09722 | 382.3 ± 11 | 1001.41 ± 0.27
298.15 K, m1 = 0.1055 | 382.8 ± 8.9 | 1001.79 ± 0.27
298.15 K, m1 = 0.1217 | 379.5 ± 11 | 1002.51 ± 0.27
298.15 K, m1 = 0.133 | 381.1 ± 7.3 | 1003.01 ± 0.27
298.15 K, m1 = 0.1455 | 382.4 ± 6.7 | 1003.56 ± 0.28
313.15 K, m1 = 0.03917 | 407.2 ± 22 | –
313.15 K, m1 = 0.04565 | 409.1 ± 19 | 994.219 ± 0.28
313.15 K, m1 = 0.05555 | 410.8 ± 17 | 994.65 ± 0.28
313.15 K, m1 = 0.06371 | 410.7 ± 15 | 995.007 ± 0.27
313.15 K, m1 = 0.07398 | 410.7 ± 13 | 995.463 ± 0.27
313.15 K, m1 = 0.08191 | 408.9 ± 13 | 995.809 ± 0.27
313.15 K, m1 = 0.08959 | 408.6 ± 11 | 996.143 ± 0.27
313.15 K, m1 = 0.1002 | 409 ± 9.2 | 996.596 ± 0.27
328.15 K, m1 = 0.03787 | 430.2 ± 25 | 987.321 ± 0.3
328.15 K, m1 = 0.04577 | 430 ± 23 | 987.659 ± 0.3
328.15 K, m1 = 0.05585 | 431.2 ± 18 | 988.092 ± 0.29
328.15 K, m1 = 0.0626 | 431.6 ± 16 | 988.383 ± 0.29
328.15 K, m1 = 0.07189 | 432.4 ± 14 | 988.783 ± 0.29
328.15 K, m1 = 0.08069 | 430.4 ± 13 | 989.147 ± 0.29
328.15 K, m1 = 0.0903 | 429.9 ± 14 | 989.565 ± 0.29
328.15 K, m1 = 0.1056 | – | 990.212 ± 0.29

CC(=O)N[C@@H](CC(N)=O)C(N)=O [(S)-2-acetamidosuccinamide]
Conditions | Normal melting temperature [°C]
[1] | 244 ± 3

CC(=O)NC(=O)[C@@H](N)Cc1ccc(O)cc1 [N-Acetyl-L-tyrosinamide]
Conditions | Normal melting temperature [°C]
[1] | 225 ± 2

CC(=O)NC(=O)[C@@H](N)Cc1ccc(O)cc1 [N-Acetyl-L-tyrosinamide] + O
[2]
Conditions | apparent molar heat capacity [J/K/mol] | mass density [kg/m3]
288.15 K, m1 = 0.01175 | 508.1 ± 67 | 999.692 ± 0.26
288.15 K, m1 = 0.012 | 504.2 ± 65 | 999.707 ± 0.26
288.15 K, m1 = 0.01302 | 504.9 ± 60 | 999.758 ± 0.26
288.15 K, m1 = 0.01344 | 509 ± 58 | 999.773 ± 0.26
288.15 K, m1 = 0.01395 | 505.4 ± 56 | 999.805 ± 0.26
288.15 K, m1 = 0.01495 | 502.3 ± 53 | 999.855 ± 0.26
288.15 K, m1 = 0.01591 | 501.9 ± 50 | 999.904 ± 0.26
288.15 K, m1 = 0.01705 | 500.4 ± 46 | 999.955 ± 0.26
288.15 K, m1 = 0.0179 | 501.6 ± 44 | 1000 ± 0.26
288.15 K, m1 = 0.01902 | 503.4 ± 42 | 1000.05 ± 0.26
288.15 K, m1 = 0.01984 | 502.6 ± 40 | 1000.1 ± 0.26
298.15 K, m1 = 0.01196 | 517 ± 66 | 997.637 ± 0.26
298.15 K, m1 = 0.013 | 517.7 ± 60 | 997.684 ± 0.26
298.15 K, m1 = 0.01383 | 515.6 ± 57 | 997.725 ± 0.26
298.15 K, m1 = 0.01493 | 517 ± 53 | 997.781 ± 0.26
298.15 K, m1 = 0.01497 | – | 997.785 ± 0.26
298.15 K, m1 = 0.01592 | 516.9 ± 50 | 997.83 ± 0.26
298.15 K, m1 = 0.017 | – | 997.885 ± 0.26
298.15 K, m1 = 0.01809 | 519.4 ± 44 | 997.94 ± 0.26
298.15 K, m1 = 0.01905 | – | 997.984 ± 0.26
298.15 K, m1 = 0.02018 | 511.5 ± 39 | 998.035 ± 0.26
313.15 K, m1 = 0.01197 | 542.3 ± 72 | 992.782 ± 0.28
313.15 K, m1 = 0.01299 | 543.8 ± 66 | 992.827 ± 0.28
313.15 K, m1 = 0.01401 | 543 ± 61 | 992.874 ± 0.28
313.15 K, m1 = 0.01501 | 545.3 ± 57 | 992.925 ± 0.28
313.15 K, m1 = 0.01596 | 546.3 ± 54 | 992.967 ± 0.28
313.15 K, m1 = 0.01693 | 541.4 ± 51 | 993.013 ± 0.28
313.15 K, m1 = 0.01787 | 543.5 ± 48 | 993.057 ± 0.28
313.15 K, m1 = 0.01892 | 542.6 ± 46 | 993.101 ± 0.28
328.15 K, m1 = 0.01201 | 553.5 ± 78 | 986.242 ± 0.3
328.15 K, m1 = 0.01295 | 552.2 ± 73 | 986.289 ± 0.3
328.15 K, m1 = 0.01394 | 549.9 ± 68 | 986.33 ± 0.3
328.15 K, m1 = 0.0149 | 556.4 ± 63 | 986.378 ± 0.3
328.15 K, m1 = 0.0159 | 554.4 ± 59 | 986.421 ± 0.3
328.15 K, m1 = 0.01694 | 552 ± 56 | 986.462 ± 0.3
328.15 K, m1 = 0.01796 | 555.6 ± 53 | 986.514 ± 0.3
328.15 K, m1 = 0.0189 | 555.1 ± 50 | 986.548 ± 0.3
